For 1 cell line, relative viability results are on record in the supplement of paper PMC10307832.

Common to all, as to experiment: relative viability (nuclei count vs DMSO), 5 days (fraction); higher = more cells survive
Compound in assay [1]: C1=CC2=C(C=C(C(=C2N=C1)O)N=NC3=CC4=C(C=C3)C=C(C=C4)S(=O)(=O)O)S(=O)(=O)O + COc1cccc2cc(-c3nc([C@H]4CC[C@H](C(=O)O)CC4)n4ncnc(N)c34)[nH]c12 [OSI-027] (partner 0.5 µM)
Summed up:
(§1)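 Relative viability equals treated-well nuclei counts divided by vehicle-well nuclei counts. Counts came from 4× images of lung cancer cell lines grown in 1536-well plates for 5 days after pin-tool dosing on the day after seeding. Dosing used one drug alone or a fixed anchor-drug dose plus five library-drug doses (not always all listed) in √10 steps, and values are medians of duplicate plates.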

Compound in assay [2]: C1=CC2=C(C=C(C(=C2N=C1)O)N=NC3=CC4=C(C=C3)C=C(C=C4)S(=O)(=O)O)S(=O)(=O)O + N=C(N)NC(=N)NCCc1ccccc1 [Phenformin] (partner 250 µM)
A digest of the protocol: as §1

Compound in the assay “AT-7519 + Foretinib”: O=C(NC1CCNCC1)c1n[nH]cc1NC(=O)c1c(Cl)cccc1Cl [AT-7519] + COc1cc2c(Oc3ccc(NC(=O)C4(C(=O)Nc5ccc(F)cc5)CC4)cc3F)ccnc2cc1OCCCN1CCOCC1 [Foretinib] (partner 0.25 µM)
A digest of the protocol:
as §1

Compound in assay [3]: C1=CC2=C(C=C(C(=C2N=C1)O)N=NC3=CC4=C(C=C3)C=C(C=C4)S(=O)(=O)O)S(=O)(=O)O + CC(C)C[C@H](NC(=O)[C@H](Cc1ccccc1)NC(=O)c1cnccn1)B(O)O [Bortezomib] (partner 0.002 µM)
Summed up:
as §1

As to UMC-11, the relative viability in assay [1] (first compound 0.08 µM) came out at 0.492; in assay [1] (first compound 0.253 µM) it was 0.435; in assay [1] (first compound 0.8 µM), 0.458; in assay [1] (first compound 2.53 µM) it was 0.47; in assay [1] (first compound 8 µM) it was 0.485; in assay [2] (first compound 0.08 µM), 0.326. Moreover, the relative viability in assay [2] (first compound 0.253 µM) amounted to 0.31; in assay [2] (first compound 0.8 µM) it was 0.336; in assay [2] (first compound 2.53 µM) it was 0.345; in assay [2] (first compound 8 µM), 0.338; with AT-7519 + Foretinib (first compound 0.01 µM), 1.1; with AT-7519 + Foretinib (first compound 0.03162 µM), 0.934. The relative viability with AT-7519 + Foretinib (first compound 0.3162 µM) was found to be 0.838; with AT-7519 + Foretinib (first compound 1 µM), 0.457; in assay [3] (first compound 0.08 µM), 0.84; in assay [3] (first compound 0.253 µM), 0.783; in assay [3] (first compound 0.8 µM), 0.708; in assay [3] (first compound 2.53 µM) it was 0.633. Also, the relative viability in assay [3] (first compound 8 µM) is 0.606.
